Data reported in US20180338980A1, “AROMATIC SULFONAMIDE DERIVATIVES” (BAYER PHARMA AKTIENGESELLSCHAFT, priority 2015, published 2018).
“Also recorded” adds a separate entry of the source.

Experiments:
[1] = target: T1, P2X4 (Homo sapiens, UniProt Q99571); experiment: Assay B: human P2X4 receptor cell line, mitochondrial photina luminescence (agonist Bz-ATP at EC50); format: cell-based; set-up: host or cells: HEK 293 (recombinant, constitutively expressing; with mitochondrial photina in Assay B); settings: HEK human P2X4 cell line, photina luminescence, agonist Bz-ATP at EC50, average; for Emax: read-out: human P2X4 Assay B avg Efficacy
T1 sequence (Q99571 1-388): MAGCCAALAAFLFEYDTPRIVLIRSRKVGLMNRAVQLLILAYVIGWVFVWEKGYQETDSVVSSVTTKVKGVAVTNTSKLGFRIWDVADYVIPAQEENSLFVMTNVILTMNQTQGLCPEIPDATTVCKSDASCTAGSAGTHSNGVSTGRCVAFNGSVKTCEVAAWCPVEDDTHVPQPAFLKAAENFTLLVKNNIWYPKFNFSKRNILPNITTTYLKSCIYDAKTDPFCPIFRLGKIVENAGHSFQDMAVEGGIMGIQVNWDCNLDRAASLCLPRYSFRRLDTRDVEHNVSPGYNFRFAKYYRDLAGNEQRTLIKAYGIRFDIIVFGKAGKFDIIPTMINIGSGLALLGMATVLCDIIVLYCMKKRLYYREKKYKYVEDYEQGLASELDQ
In short: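 Bz-ATP at its EC50 activates human P2X4 stably expressed in a cell line that also carries the calcium-sensitive photoprotein mitochondrial photina (coelenterazine cofactor). Light emitted on calcium influx is measured straight away in a luminometer. Reduced luminescence indicates antagonism.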

[2] = target: T1, P2X4; experiment: Human whole blood assay (human WBA): IL-13 production after LPS priming and ATP stimulation; format: cell-based; set-up: from tissue; host or cells: human whole blood of healthy female volunteers; settings: IL-13 in human whole blood, LPS 100 ng/ml 2 h then ATP 3 mM 1 h; total concentration
Experimental: Human whole blood assay (human WBA) was prepared from the blood of healthy female volunteers. In this assay, the efficacy of P2X4 antagonists on the production of IL-13 in whole blood after ATP stimulation (3 mM for 1 h) following priming of the cells with lipopolysacaride (LPS, 100 ng/ml for 2 h) was evaluated. After incubation, supernatant was taken following centrifugation and the formation of IL-13 was assayed using standard ELISA kits. IC50 values were calculated using GraphPad PRISM program with nonlinear regression curve fit. Data are presented as total concentration.

[3] = target: T1, P2X4; experiment: Assay A: human P2X4 receptor cell line, FLIPR calcium assay (Fluo-8, agonist Bz-ATP at EC80); format: cell-based; set-up: host or cells: HEK 293 (recombinant, constitutively expressing; with mitochondrial photina in Assay B); settings: HEK human P2X4 cells, Fluo-8 FLIPR; for IC50: Bz-ATP at EC80, average values; for Emax: percentage of maximal inhibition, read-out: human P2X4 Assay A avg Efficacy
In short: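 Antagonism read as inhibition of the calcium response to EC80 Bz-ATP, by peak-over-basal Fluo-8 fluorescence over 120 s, normalized to DMSO wells. Human P2X4-HEK cells, dye-loaded 30 min in probenecid-containing HBSS/HEPES pH 7.4, received compound 30 min beforehand at room temperature, 0.5% DMSO final. Triplicates fitted for IC50, maximal inhibition and Hill slope.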

[4] = target: T2, mouse P2X4 receptors (Mus musculus, UniProt Q9JJX6); experiment: Assay B: mouse P2X4 receptor cell line, Fluo8 fluorescence FLIPR (agonist Bz-ATP at EC50); format: cell-based; settings: HEK mouse P2X4 cell line, agonist Bz-ATP at EC50, average
T2 construct: host or cells: HEK 293 (recombinant, constitutively expressing)
T2 sequence (Q9JJX6 1-388): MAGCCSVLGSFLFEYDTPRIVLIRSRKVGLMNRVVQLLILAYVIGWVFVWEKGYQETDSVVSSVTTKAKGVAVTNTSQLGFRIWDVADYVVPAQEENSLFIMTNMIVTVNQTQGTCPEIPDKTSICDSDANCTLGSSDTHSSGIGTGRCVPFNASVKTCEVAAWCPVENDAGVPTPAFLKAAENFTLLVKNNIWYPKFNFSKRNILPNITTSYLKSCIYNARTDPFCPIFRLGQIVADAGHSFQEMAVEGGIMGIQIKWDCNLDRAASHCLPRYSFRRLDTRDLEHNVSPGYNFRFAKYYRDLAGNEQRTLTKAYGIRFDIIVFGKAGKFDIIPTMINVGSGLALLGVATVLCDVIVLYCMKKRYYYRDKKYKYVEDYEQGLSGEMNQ
Experimental: The identification of agonists and antagonists of the P2X4 receptor from humans and […] also the quantification of the activity of the compounds of the invention was performed by use of recombinant cell lines. […] The test cell lines constitutively express the mouse or human P2X4 receptors. Stimulation of the receptors with an agonist leads to a conformational change of P2X4 and influx of extracellular calcium ions through the ion channel. The cytoplasmatic calcium transient is detected via the calcium sensitive dye Fluo8 for the mouse P2×4 cell line or in case of the human P2×4 cell line a stably expressed calcium-sensitive photoprotein, mitochondrial photina, which, after reconstitution with the cofactor coelenterazine, emits light in dependence of calcium binding [Bovolenta S, Foti M, Lohmer S, Corazza S., J Biomol Screen. […] The strength of Fluo8 fluorescence signal or photina luminescence signal corresponds to the level of receptor activation. An inhibitor would decrease the signal depending on its potency and concentration.
On the day of the assay medium is exchanged by Fluo8 containing buffer for 30 minutes. In the fluorescence reader (FLIPR) test substances in various concentrations are added for 10 minutes. After baseline measurement the agonist Bz-ATP at EC50 concentration is applied and fluorescence is measured immediately.

[5] = tested on: PGE2 levels; experiment: PGE2 levels after CFA-induced inflammation in mice (hind paw tissue, ELISA); format: in vivo, mouse; settings: single oral dose 12.5, 25, 50 mg/kg, 48 h after CFA, 1 h after dose
Experimental: Female c57bl/6 mice (Taconic) received intraplantar injection of complete Freund's adjuvant (CFA) (30 μl, 1 mg/ml, Sigma) into the left hind paw under isoflurane anesthesia. […] At termination of the experiments (48 h after CFA, 1 h after dose), hind paw tissue is collected for analysis of PGE2 levels (ELISA, Cayman Chemical item no. 514531).
(§1) Statistical analysis is performed with one-way analysis of variance, followed by Bonferroni's multiple comparison test vs. vehicle controls using the GraphPad PRISM software, *p<0.05, **p<0.01.

[6] = tested on: c57bl/6 mice; experiment: CFA inflammation model with pain read out (dynamic weight bearing); format: in vivo, mouse; settings: 50 mg/kg oral on day 1 and day 2 post-CFA, 24-48 h after CFA
Experimental: Wild type female c57bl/6 mice (Taconic) received intraplantar injection of complete Freund's adjuvant (CFA) (30 μl, 1 mg/ml, Sigma) into the left hind paw under isoflurane anesthesia. […] Spontaneous pain-related behavior in freely moving animals was assessed using the automated dynamic weight bearing device (DWB, Bioseb, France) according to published and validated protocols (Robinson et al., 2012; Tetreault et al., 2011; Gruen et al. 2014). For behavioral testing, the animal was placed inside a Plexiglas chamber and allowed to move freely within the apparatus for a 5 min period, subsequently pain behavior is recorded for a test period of another 5 min.
as §1

N#Cc1cccc(Oc2ccc(NC(=O)Cc3ccccc3Cl)cc2S(N)(=O)=O)c1 [Example 015, 2-(2-Chlorophenyl)-N-[4-(3-cyanophenoxy)-3-sulfamoylphenyl]acetamide]
IC50 [1]: 25 nM
Emax [1]: 80%
IC50 [2]: 2540 nM
IC50 [3]: 58 nM
Emax [3]: 71%
IC50 [4]: 149 nM
mouse P2X4 Assay B avg Efficacy [4]: 45%

NS(=O)(=O)c1cc(NC(=O)Cc2ccccc2Cl)ccc1OCC1CCCC1 [Example 160, 2-(2-Chlorophenyl)-N-[4-(cyclopentylmethoxy)-3-sulfamoylphenyl]acetamide]
IC50 [1]: 40 nM
Emax [1]: 67%
IC50 [3]: 10 nM
Emax [3]: 71%
IC50 [4]: 1030 nM
mouse P2X4 Assay B avg Efficacy [4]: 62%

NS(=O)(=O)c1cc(NC(=O)Cc2cc(F)ccc2Cl)ccc1OCC1CCOCC1 [Example 163, 2-(2-Chloro-5-fluorophenyl)-N-[3-sulfamoyl-4-(tetrahydro-2H-pyran-4-ylmethoxy)phenyl]acetamide]
Emax [1]: 61%
Emax [3]: 68%
IC50 [4]: 3500 nM
mouse P2X4 Assay B avg Efficacy [4]: 65%

CN(C)C(=O)c1cccc(CC(=O)Nc2ccc(Oc3cccc(Cl)c3)c(S(N)(=O)=O)c2)c1 [Example 202, 3-(2-{[4-(3-Chlorophenoxy)-3-sulfamoylphenyl]amino}-2-oxoethyl)-N,N-dimethylbenzamide]
IC50 [1]: 278 nM
Emax [1]: 83%
IC50 [3]: 121 nM
Emax [3]: 72%
IC50 [4]: 947 nM
mouse P2X4 Assay B avg Efficacy [4]: 60%

NS(=O)(=O)c1cc(NC(=O)Cc2ccccc2Cl)ccc1OC1CCOCC1 [Example 207, 2-(2-Chlorophenyl)-N-[3-sulfamoyl-4-(tetrahydro-2H-pyran-4-yloxy)phenyl]acetamide]
IC50 [1]: 100 nM
Emax [1]: 77%
IC50 [3]: 473 nM
Emax [3]: 60%
IC50 [4]: ≥ 16000 nM
mouse P2X4 Assay B avg Efficacy [4]: 20%

COc1ccc(CC(=O)Nc2ccc(Oc3ccc(Cl)cc3)c(S(N)(=O)=O)c2)cc1 [Example 229, N-[4-(4-Chlorophenoxy)-3-sulfamoylphenyl]-2-(4-methoxyphenyl)acetamide]
IC50 [1]: 78 nM
Emax [1]: 56%
IC50 [2]: 30000 nM
IC50 [3]: 472 nM
Emax [3]: 63%

NS(=O)(=O)c1cc(NC(=O)Cc2ccccc2Cl)ccc1OC1CCS(=O)(=O)C1 (stereo not shown) [Example 232, 2-(2-Chlorophenyl)-N-{4-[(1,1-dioxidotetrahydrothiophen-3-yl)oxy]-3-sulfamoylphenyl}acetamide]
IC50 [1]: 149 nM
Emax [1]: 49%
IC50 [3]: 215 nM
Emax [3]: 57%
IC50 [4]: 3330 nM
mouse P2X4 Assay B avg Efficacy [4]: 61%

NS(=O)(=O)c1cc(NC(=O)Cc2ccccc2)ccc1Oc1cccc(Cl)c1 [Example 244, N-[4-(3-Chlorophenoxy)-3-sulfamoylphenyl]-2-phenylacetamide]
PGE2 levels in inflamed hind paw after CFA injection [5]: dose-dependently reduced PGE2 levels; also recorded: still in the range of PGE2 levels of PBS treated animals
spontaneous pain behavior assessed by DWB after CFA-induced inflammation [6]: significantly reduced spontaneous pain behavior
mouse P2X4 Assay B avg Efficacy [4]: 51%
